{"source": "paper PMC11239005", "about": "“Preclinical studies of RA475, a guanidine-substituted spirocyclic candidate RPN13/ADRM1 inhibitor for treatment of ovarian cancer” (PLOS ONE, 2024)", "key": {"[1]": {"tested_on": "4UbFL in HCC1806 cells", "assay": "4UbFL reporter assay, HCC1806", "format": "cell-based", "conditions": "HCC1806 stably expressing 4UbFL, 4 h", "description": "Sub-confluent cultures of cells were transfected with 4UbFL plasmid using TransIT 2020 reagent (Mirus Bio). Cells were seeded at 10,000 cells/well in 96-well plates 48 h post transfection, and incubated with compounds or vehicle (DMSO) at the doses and for the times indicated. Luciferase activity in cell lysate was determined with a luciferase assay kit (Promega) according to the manufacturer’s instructions. Bioluminescence was measured using a Glomax Multidetection system (Promega).\nFig 3 Impact of RA475 on proteasome function. […] Actin was used as loading control. […] After a 4 h incubation, the cells were lysed and the luciferase activity in each cell lysate was determined with a luciferase assay kit (Promega) according to the manufacturer’s instructions. Bioluminescence was measured by using a luminometer (Glomax Multidetection system, Promega) E) A patch was shaved of hair on one leg of CD-1 mice, and 10 μg 4UbFL plasmid in 20 μL of PBS was injected into the quadriceps femoralis muscle followed immediately by injection of the 2 Needle Array to 5 mm depth encompassing the injection site and square wave electroporation (ElectroSquarePorator 833, BTX-2 Needle array 5mm gap, Harvard apparatus) delivered as eight pulses at 106V for 20 ms with 200 ms intervals. […] Equally sized areas were analyzed using Living Image 2.20 software. […]"}, "[2]": {"assay": "Human plasma protein binding, equilibrium dialysis", "format": "in vitro ADME", "conditions": "pH 7.4, dialysis 5 h", "description": "The assay was performed in a multiple-use 96-well dialysis unit (HTD96b dialyzer). Each individual well unit consisted of 2 chambers separated by a vertically aligned dialysis membrane of predetermined pore size (MWCO 12–14 kDa). 120 μL of non-diluted plasma spiked with the compound (1 μM, final DMSO concentration 1%) was added to one chamber, and the same volume of PBS buffer pH 7.4 to the other chamber. The HTD96b dialyzer was covered with adhesive sealing film and incubated 5 h at 37°C while shaking at 100 rpm. For sample preparation, an aliquot of the contents of each chamber was mixed with the same volume of the blank opposite matrix. In order to define non-specific loss of the compound during this assay, a standard solution was created by mixing an aliquot of spiked plasma with blank buffer without dialysis. Two aliquots of the standard solution were incubated at 37°C, shaking at 100 rpm for 5 h (recovery samples). The other two aliquots were immediately diluted with acetonitrile and stored at 4°C until analysis (stability samples). All samples were diluted 5-fold with internal standard diluted in 100% methanol with subsequent plasma proteins sedimentation by centrifuging at 6000 rpm for 5 minutes. Supernatants were analyzed using LC-MS/MS. The percentage of plasma protein bound compound, recovery and stability were calculated using following equations. […]"}}, "data": [{"smiles": "Cl.Cl.N#Cc1ccc(/C=C2/C(=O)/C(=C/c3ccc(C#N)cc3)C23CCN(C(=N)N)CC3)cc1", "note": "[RA475, 1,3-bis((E)-4-cyanobenzylidene)-2-oxo-7-azaspiro[3.5]nonane-7-carboximidamide dihydrochloride]", "values": [{"measurement": "4UbFL bioluminescence signal", "setting": "[1]", "value": "dose dependent increases in bioluminescence signal"}, {"measurement": "fraction unbound at 5 h, 1 μM", "setting": "[2]", "value": 0.009}]}]}
